These results are taken from ChEMBL document CHEMBL1141117, “Unambiguous synthesis and prophylactic antimalarial activities of imidazolidinedione derivatives” (J Med Chem, 2005).

In general, inhibition in vivo refers to how much of the control response was suppressed. A low value points to little suppression. A word on the IC90: it is the point of the concentration-response curve where the effect stands at 90%. High values mean a need for much substance, low ones an effect from little substance. What is called IC50 is the concentration needed to halve the response being measured.

The test system of experiment [1] is Plasmodium yoelii. Briefly: Prophylactic activity in infected mouse at 40 mg/kg peroral administration, expressed as no of organisms survived; Total organisms= 5. To be noted: route oral.
For experiment [2], the system named is Plasmodium yoelii. In words: Prophylactic activity in infected mouse at 1.23 mg/kg peroral administration, expressed as no of organisms survived; Total organisms= 5. To be noted: route oral.
Experiment [3] concerns Plasmodium yoelii. In words: Prophylactic activity in infected mouse at 2.5 mg/kg peroral administration, expressed as no of organisms survived; Total organisms= 5. To be noted: route oral.
Experiment [4] relates to Plasmodium yoelii. Briefly: Prophylactic activity in infected mouse at 5 mg/kg peroral administration, expressed as no of organisms survived; Total organisms= 5. Particulars: route oral.
The test system of experiment [5] is Plasmodium yoelii. Briefly: Prophylactic activity in infected mouse at 160 mg/kg peroral administration, expressed as no of organisms survived; Total organisms= 5. To be noted: route oral.
Experiment [6] has as its system Plasmodium yoelii. In words: Prophylactic activity in infected mouse at 10 mg/kg peroral administration, expressed as no of organisms survived; Total organisms= 5. Particulars: route oral.
Experiment [7] deals with Plasmodium yoelii. In words: In vitro antimalarial activity dosed at 1 mg/kg against exoerythrocytic Plasmodium yoelii in mice (Mus musculus) hepatocytes. To be noted: Hepatocyte.
The subject of experiment [8] is Plasmodium yoelii. In words: In vitro antimalarial activity dosed at 10 mg/kg against exoerythrocytic Plasmodium yoelii in mice (Mus musculus) hepatocytes. To be noted: Hepatocyte.
The test system of experiment [9] is Plasmodium falciparum. In words: (§1) In vitro antimalarial activity for Plasmodium falciparum TM91C235. The class given is functional.
Experiment [10] has as its system Plasmodium falciparum. Briefly: (§2) In vitro antimalarial activity for Plasmodium falciparum W2. The experiment is classed as functional.
In experiment [11] the test system is Plasmodium falciparum. The experiment is described as §2. The experiment is classed as functional, organism-based.
Experiment [12] deals with Plasmodium falciparum. The experiment is described as §1. The class given is functional, organism-based.
Experiment [13] concerns Plasmodium falciparum. Briefly: (§3) In vitro antimalarial activity for Plasmodium falciparum D6. The class given is functional, organism-based.
Experiment [14] relates to Plasmodium falciparum. The experiment is described as §3. The class given is functional.
Experiment [15] deals with Plasmodium yoelii. In words: Prophylactic activity in infected mouse at 1.25 mg/kg peroral administration, expressed as no of organisms survived; Total organisms= 5. Particulars: route oral.
The test system of experiment [16] is Plasmodium yoelii. In words: Prophylactic activity in infected mouse at 160 mg/kg peroral administration, expressed as no of organisms survived; Not dosed.
Experiment [17] concerns Plasmodium yoelii. In words: Prophylactic activity in infected mouse at 20 mg/kg peroral administration, expressed as no of organisms survived; Total organisms= 5. To be noted: route oral.
The test system of experiment [18] is Plasmodium yoelii. In words: Prophylactic activity in infected mouse at 80 mg/kg peroral administration, expressed as no of organisms survived; Total organisms= 5. To be noted: route oral.
The subject of experiment [19] is Plasmodium yoelii. Briefly: Prophylactic activity in infected mouse at 160 mg/kg peroral administration, expressed as no of organisms survived; Toxicity death.

Converted amounts (≈) assume the structure as drawn.

`CC(C)COC(=O)N/C(=N/C(C)C)NC1=NC(=O)C(=O)N1c1ccc(Cl)c(Cl)c1`: the Activity in experiment [1] is given as 5; in experiment [2], 0; in experiment [3], 1; in [4] it was 5; in experiment [5], 5; in experiment [6] it was 5.
Turning to `CC(C)N1C(=O)C(=O)N=C1N/C(=N\C(=O)OCc1ccccc1)Nc1ccc(Cl)c(Cl)c1`, the inhibition in vivo at 1 mg/kg in experiment [7] came out at 25%. Further, the Activity in experiment [1] and in experiment [5] was 0 each time. Also, at 10 mg/kg the inhibition in vivo in experiment [8] was 43%.
With `C=CCCOC(=O)/N=C(\NC1=NC(=O)C(=O)N1C(C)C)Nc1ccc(Cl)c(Cl)c1`, the Activity stood at 0 in experiment [1], 1 in [5] and 0 in experiment [6].
`CC(C)N1C(=O)C(=O)N=C1NC(=N)Nc1ccc(Cl)c(Cl)c1` came in with an inhibition in vivo at 1 mg/kg in [7] of 50%. Moreover, the values for the IC90 in [9], in experiment [10] and in [14] were 11.3 µg/mL (≈ 33.2 µM), 10.9 µg/mL (≈ 31.8 µM) and 12.1 µg/mL (≈ 35.3 µM), respectively. Besides, the IC50 is 2.66 µg/mL (≈ 7.79 µM) in [11], 2.59 µg/mL (≈ 7.57 µM) in experiment [12] and 2.97 µg/mL (≈ 8.68 µM) in experiment [13]. The compound also displayed an inhibition in vivo at 10 mg/kg in [8] of 91%.
For the compound `Cc1oc(=O)oc1COC(=O)/N=C(\NC1=NC(=O)C(=O)N1C(C)C)Nc1ccc(Cl)c(Cl)c1`, the Activity in experiment [1] is given as 2; in experiment [3], 0; in [5], 3; in experiment [6] it was 2.
In experiment [7], `CC(C)N1C(=O)C(=O)N=C1N/C(=N\C(=O)OC(C)(C)C)Nc1ccc(Cl)c(Cl)c1` displayed an inhibition in vivo at 1 mg/kg of 69%. The Activity amounted to 2 in [1], 5 in experiment [5] and 0 in experiment [6]. The compound also showed an inhibition in vivo at 10 mg/kg in experiment [8] of 99%.
Consider `CC(C)/N=C(/NC(=O)OC(C)(C)C)NC1=NC(=O)C(=O)N1c1ccc(Cl)c(Cl)c1`, for which the Activity in experiment [1] came to 4; in experiment [3], 2; in experiment [4], 4; in experiment [15], 2; in experiment [5], 5.
Turning to `C=CCCOC(=O)N/C(=N/C(C)C)NC1=NC(=O)C(=O)N1c1ccc(Cl)c(Cl)c1`, the Activity entry in experiment [16] was “Not Dosed”.
Consider `CC(C)COC(=O)/N=C(\NC1=NC(=O)C(=O)N1C(C)C)Nc1ccc(Cl)c(Cl)c1`, for which the Activity in experiment [1] came to 2; in [5], 5; in experiment [6], 0.
Turning to `CCO[C@H]1O[C@@H]2O[C@@]3(C)CC[C@H]4[C@H](C)CC[C@@H]([C@H]1C)[C@@]24OO3` [ARTEMOTIL], the Activity in experiment [1], in [5] and in experiment [6] was 0 in each case.
Consider `CCCCCCOC(=O)N/C(=N/C(C)C)NC1=NC(=O)C(=O)N1c1ccc(Cl)c(Cl)c1`, for which the Activity amounted to 4 in [17]; 5 in [18]; 3 in experiment [1]; 2 in [4]; 2 in [6].
Regarding `COc1cc(NC(C)CCCN)c2ncccc2c1` (centres undefined) [PRIMAQUINE], the Activity in experiment [1] is 2; in [5], 5; in [6] it was 0.
On the same counts, the results for `CC(C)N1C(=O)C(=O)N=C1N/C(=N\C(=O)OCCOCc1ccccc1)Nc1ccc(Cl)c(Cl)c1` are 0, 1 and 0.
Take `CCOC(=O)N/C(=N/C(C)C)NC1=NC(=O)C(=O)N1c1ccc(Cl)c(Cl)c1`: in experiment [7], the inhibition in vivo at 1 mg/kg worked out at 10%. For the same compound, the Activity came out at 3 in experiment [17]; 5 in experiment [18]; 5 in [1]; 1 in experiment [4]; 1 in experiment [6]. The inhibition in vivo at 10 mg/kg in experiment [8] amounted to 98%.
For the compound `CCN(CC)CCCC(C)Nc1ccnc2cc(Cl)ccc12` (centres undefined) [CHLOROQUINE], the values for the IC90 in experiment [9], in experiment [10] and in experiment [14] were 0.0552 µg/mL (≈ 0.173 µM), 0.199 µg/mL (≈ 0.621 µM) and 0.00533 µg/mL (≈ 0.0167 µM), respectively.
Regarding `CCCCCCOC(=O)/N=C(\NC1=NC(=O)C(=O)N1C(C)C)Nc1ccc(Cl)c(Cl)c1`, the Activity in experiment [1] was found to be 2; in experiment [5] it was 1; in experiment [6], 0.
Consider `O[C@@H](c1cc(C(F)(F)F)nc2c(C(F)(F)F)cccc12)C1CCCCN1` (some centres undefined) [MEFLOQUINE], for which the concentration for an effect of 90% (IC90) in [9] was 0.044 µg/mL (≈ 0.116 µM); in experiment [10] it was 0.00401 µg/mL (≈ 0.0106 µM); in [14] it was 0.0134 µg/mL (≈ 0.0355 µM).
In turn, `COc1cc(C)c2c(Oc3cccc(C(F)(F)F)c3)c(OC)cc(NC(C)CCCN)c2n1` (centres undefined) [TAFENOQUINE] displayed an inhibition in vivo at 1 mg/kg in experiment [7] of 39%. For the same compound, the Activity is 5 in experiment [1]; “Toxicity death” in [19]; 3 in experiment [3]; 5 in [4]; 5 in [6]. In [8], this compound showed an inhibition in vivo at 10 mg/kg of 96%.
As for `CCOC(=O)/N=C(\NC1=NC(=O)C(=O)N1C(C)C)Nc1ccc(Cl)c(Cl)c1`, in experiment [7], the inhibition in vivo at 1 mg/kg is 63%. Moreover, the Activity is 4 in experiment [1], 0 in [3], 5 in experiment [5] and 2 in [6]. The compound further displayed an inhibition in vivo at 10 mg/kg in [8] of 99%.
For `CC(C)/N=C(/NC(=O)OCc1ccccc1)NC1=NC(=O)C(=O)N1c1ccc(Cl)c(Cl)c1`, in [7], at 1 mg/kg the inhibition in vivo was 6.7%. The Activity in experiment [1] was determined as 2; in experiment [3], 0; in experiment [4], 3; in experiment [5], 3; in experiment [6], 2. At 10 mg/kg the inhibition in vivo in [8] was 87%.
